Laboratory results: patent US12077503B2, “Substituted cyclic amides and their use as herbicides” (FMC CORPORATION, priority 2015, dated 2024)

How the values were obtained:
Format in all cases: in vivo
[1] = test system: barnyardgrass (Echinochloa crus-galli); experiment: Test G Pre-Emergence Protocol; settings: Echinochloa crus-galli, pre-emergence, 312 h, evaluated after 13 days; for pest or weed control at 15.625 g/ha: 15.625 g ai/ha; for pest or weed control at 15.625 g/ha / pest or weed control at 250 g/ha: read-out: Barnyardgrass damage rating (100=total damage to plant; 0=no damage to plant); for pest or weed control at 62.5 g/ha: 62.5 g ai/ha, 100=total damage to plant, 0=no damage to plant, read-out: Barnyardgrass damage rating; for pest or weed control at 250 g/ha: 250 g ai/ha
Method in brief: (§1)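 Spraying took place one day after sowing, at 15.625, 62.5 or 250 g/ha, using an acetone/water (50:50) spray solution containing 0.5% Tween 20. Plants were kept under glasshouse conditions (24/16 °C, 14 h light, 65% humidity, watered twice daily), and injury was rated 0–100 at day 13.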

corn (Zea mays) [2] = experiment: Test G Pre-Emergence Protocol; settings: Zea mays, pre-emergence, 312 h, evaluated after 13 days; for plant injury at 15.625 g/ha: 15.625 g ai/ha; for plant injury at 15.625 g/ha / plant injury at 250 g/ha: read-out: Corn damage rating (100=total damage to plant; 0=no damage to plant); for plant injury at 62.5 g/ha: 62.5 g ai/ha, 100=total damage to plant, 0=no damage to plant, read-out: Corn damage rating; for plant injury at 250 g/ha: 250 g ai/ha
Method in brief: as §1

[3] = test system: giant foxtail (Setaria faberi); experiment: Test G Pre-Emergence Protocol; settings: Setaria faberi, pre-emergence, 312 h, evaluated after 13 days; for pest or weed control at 15.625 g/ha: 15.625 g ai/ha; for pest or weed control at 15.625 g/ha / pest or weed control at 250 g/ha: read-out: Foxtail, Giant damage rating (100=total damage to plant; 0=no damage to plant); for pest or weed control at 62.5 g/ha: 62.5 g ai/ha, 100=total damage to plant, 0=no damage to plant, read-out: Foxtail, Giant damage rating; for pest or weed control at 250 g/ha: 250 g ai/ha
Method in brief: as §1

[4] = test system: ivy-leaved morning glory (Ipomoea hederacea); experiment: Test G Pre-Emergence Protocol; settings: Ipomoea, pre-emergence, 312 h, evaluated after 13 days; for pest or weed control at 15.625 g/ha: 15.625 g ai/ha; for pest or weed control at 15.625 g/ha / pest or weed control at 250 g/ha: read-out: Morningglory, Ivy-leaved damage rating (100=total damage to plant; 0=no damage to plant); for pest or weed control at 62.5 g/ha: 62.5 g ai/ha, 100=total damage to plant, 0=no damage to plant, read-out: Morningglory, Ivy-leaved damage rating; for pest or weed control at 250 g/ha: 250 g ai/ha
Method in brief: as §1

[5] = test system: redroot pigweed (Amaranthus retroflexus); experiment: Test G Pre-Emergence Protocol; settings: Amaranthus retroflexus, pre-emergence, 312 h, evaluated after 13 days; for pest or weed control at 15.625 g/ha: 15.625 g ai/ha; for pest or weed control at 15.625 g/ha / pest or weed control at 250 g/ha: read-out: Pigweed, Redroot damage rating (100=total damage to plant; 0=no damage to plant); for pest or weed control at 62.5 g/ha: 62.5 g ai/ha, 100=total damage to plant, 0=no damage to plant, read-out: Pigweed, Redroot damage rating; for pest or weed control at 250 g/ha: 250 g ai/ha
Method in brief: as §1

[6] = test system: velvetleaf (Abutilon theophrasti); experiment: Test G Pre-Emergence Protocol; settings: Abutilon theophrasti, pre-emergence, 312 h, evaluated after 13 days; for pest or weed control at 15.625 g/ha: 15.625 g ai/ha; for pest or weed control at 15.625 g/ha / pest or weed control at 250 g/ha: read-out: Velvetleaf damage rating (100=total damage to plant; 0=no damage to plant); for pest or weed control at 62.5 g/ha: 62.5 g ai/ha, 100=total damage to plant, 0=no damage to plant, read-out: Velvetleaf damage rating; for pest or weed control at 250 g/ha: 250 g ai/ha
Method in brief: as §1

[7] = test system: barnyardgrass (Echinochloa crus-galli); experiment: Test G Post-Emergence Protocol; settings: Echinochloa crus-galli, post-emergence, 312 h, read-out: Barnyardgrass damage rating; for pest or weed control at 15.625 g/ha: 15.625 g ai/ha, evaluated after 13 days (100=total damage to plant; 0=no damage to plant); for pest or weed control at 62.5 g/ha: 62.5 g ai/ha; for pest or weed control at 62.5 g/ha / pest or weed control at 250 g/ha: evaluated after 13 days, 100=total damage to plant, 0=no damage to plant; for pest or weed control at 250 g/ha: 250 g ai/ha
Method in brief: (§2)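 Post-emergence herbicidal damage, scored visually 0–100 at 13 days. Application at 15.625, 62.5 or 250 g/ha onto 8-day-old plants grown under glasshouse control.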

corn (Zea mays) [8] = experiment: Test G Post-Emergence Protocol; settings: Zea mays, post-emergence, 312 h, read-out: Corn damage rating; for plant injury at 15.625 g/ha: 15.625 g ai/ha, evaluated after 13 days (100=total damage to plant; 0=no damage to plant); for plant injury at 62.5 g/ha: 62.5 g ai/ha; for plant injury at 62.5 g/ha / plant injury at 250 g/ha: evaluated after 13 days, 100=total damage to plant, 0=no damage to plant; for plant injury at 250 g/ha: 250 g ai/ha
Method in brief: as §2

[9] = test system: giant foxtail (Setaria faberi); experiment: Test G Post-Emergence Protocol; settings: Setaria faberi, post-emergence, 312 h, read-out: Foxtail, Giant damage rating; for pest or weed control at 15.625 g/ha: 15.625 g ai/ha, evaluated after 13 days (100=total damage to plant; 0=no damage to plant); for pest or weed control at 62.5 g/ha: 62.5 g ai/ha; for pest or weed control at 62.5 g/ha / pest or weed control at 250 g/ha: evaluated after 13 days, 100=total damage to plant, 0=no damage to plant; for pest or weed control at 250 g/ha: 250 g ai/ha
Method in brief: as §2

[10] = test system: ivy-leaved morning glory (Ipomoea hederacea); experiment: Test G Post-Emergence Protocol; settings: Ipomoea, post-emergence, 312 h, read-out: Morningglory, Ivy-leaved damage rating; for pest or weed control at 15.625 g/ha: 15.625 g ai/ha, evaluated after 13 days (100=total damage to plant; 0=no damage to plant); for pest or weed control at 62.5 g/ha: 62.5 g ai/ha; for pest or weed control at 62.5 g/ha / pest or weed control at 250 g/ha: evaluated after 13 days, 100=total damage to plant, 0=no damage to plant; for pest or weed control at 250 g/ha: 250 g ai/ha
Method in brief: as §2

[11] = test system: redroot pigweed (Amaranthus retroflexus); experiment: Test G Post-Emergence Protocol; settings: Amaranthus retroflexus, post-emergence, 312 h, read-out: Pigweed, Redroot damage rating; for pest or weed control at 15.625 g/ha: 15.625 g ai/ha, evaluated after 13 days (100=total damage to plant; 0=no damage to plant); for pest or weed control at 62.5 g/ha: 62.5 g ai/ha; for pest or weed control at 62.5 g/ha / pest or weed control at 250 g/ha: evaluated after 13 days, 100=total damage to plant, 0=no damage to plant; for pest or weed control at 250 g/ha: 250 g ai/ha
Method in brief: as §2

[12] = test system: velvetleaf (Abutilon theophrasti); experiment: Test G Post-Emergence Protocol; settings: Abutilon theophrasti, post-emergence, 312 h, read-out: Velvetleaf damage rating; for pest or weed control at 15.625 g/ha: 15.625 g ai/ha, evaluated after 13 days (100=total damage to plant; 0=no damage to plant); for pest or weed control at 62.5 g/ha: 62.5 g ai/ha; for pest or weed control at 62.5 g/ha / pest or weed control at 250 g/ha: evaluated after 13 days, 100=total damage to plant, 0=no damage to plant; for pest or weed control at 250 g/ha: 250 g ai/ha
Method in brief: as §2

| SMILES | pest or weed control at 15.625 g/ha [1] [%] | pest or weed control at 62.5 g/ha [1] [%] | pest or weed control at 250 g/ha [1] [%] | plant injury at 15.625 g/ha (corn (Zea mays) [2]) [%] | plant injury at 62.5 g/ha (corn (Zea mays) [2]) [%] | plant injury at 250 g/ha (corn (Zea mays) [2]) [%] | pest or weed control at 15.625 g/ha [3] [%] | pest or weed control at 62.5 g/ha [3] [%] | pest or weed control at 250 g/ha [3] [%] | pest or weed control at 15.625 g/ha [4] [%] | pest or weed control at 62.5 g/ha [4] [%] | pest or weed control at 250 g/ha [4] [%] | pest or weed control at 15.625 g/ha [5] [%] | pest or weed control at 62.5 g/ha [5] [%] | pest or weed control at 250 g/ha [5] [%] | pest or weed control at 15.625 g/ha [6] [%] | pest or weed control at 62.5 g/ha [6] [%] | pest or weed control at 250 g/ha [6] [%] | pest or weed control at 15.625 g/ha [7] [%] | pest or weed control at 62.5 g/ha [7] [%] | further results |
| --- | --- | --- | --- | --- | --- | --- | --- | --- | --- | --- | --- | --- | --- | --- | --- | --- | --- | --- | --- | --- | --- |
| CN1C[C@H](c2cccc(C(F)(F)F)c2)[C@@H](C(=O)Nc2cccnc2F)C1=O (racemic) [Compound 1809] | 90 | 80 | 90 | 60 | 80 | 90 | 90 | 90 | 90 | 10 | 70 | 80 | 0 | 0 | 60 | 0 | 0 | 50 | 80 | 80 | pest or weed control at 250 g/ha [7]: 80%; plant injury at 15.625 g/ha (corn (Zea mays) [8]): 80%; plant injury at 62.5 g/ha (corn (Zea mays) [8]): 80%; plant injury at 250 g/ha (corn (Zea mays) [8]): 80%; pest or weed control at 15.625 g/ha [9]: 80%; pest or weed control at 62.5 g/ha [9]: 80%; pest or weed control at 250 g/ha [9]: 80%; pest or weed control at 15.625 g/ha [10]: 20%; pest or weed control at 62.5 g/ha [10]: 70%; pest or weed control at 250 g/ha [10]: 70%; pest or weed control at 15.625 g/ha [11]: 20%; pest or weed control at 62.5 g/ha [11]: 20%; pest or weed control at 250 g/ha [11]: 50%; pest or weed control at 15.625 g/ha [12]: 0%; pest or weed control at 62.5 g/ha [12]: 0%; pest or weed control at 250 g/ha [12]: 40% |
| Cc1c(F)cccc1NC(=O)[C@@H]1C(=O)N(C)C[C@H]1c1ccc2nonc2c1 (racemic) [Compound 1818] | 30 | 30 | 90 | 0 | 0 | 70 | 70 | 90 | 90 | 0 | 10 | 40 | 0 | 0 | 40 | 0 | 30 | 70 | 0 | 30 | pest or weed control at 250 g/ha [7]: 80%; plant injury at 15.625 g/ha (corn (Zea mays) [8]): 0%; plant injury at 62.5 g/ha (corn (Zea mays) [8]): 30%; plant injury at 250 g/ha (corn (Zea mays) [8]): 60%; pest or weed control at 15.625 g/ha [9]: 40%; pest or weed control at 62.5 g/ha [9]: 80%; pest or weed control at 250 g/ha [9]: 80%; pest or weed control at 15.625 g/ha [10]: 0%; pest or weed control at 62.5 g/ha [10]: 10%; pest or weed control at 250 g/ha [10]: 40%; pest or weed control at 15.625 g/ha [11]: 0%; pest or weed control at 62.5 g/ha [11]: 0%; pest or weed control at 250 g/ha [11]: 0%; pest or weed control at 15.625 g/ha [12]: 0%; pest or weed control at 62.5 g/ha [12]: 0%; pest or weed control at 250 g/ha [12]: 30% |
